Data reported in BigSolDB 2.1.

Oc1ccc(/C=C/c2cc(O)cc(O)c2)cc1
solubility (mole fraction)
Conditions	273.2 K	283.2 K	293.2 K	303.2 K	313.2 K	323.2 K
in acetone	0.0846	0.0858	0.0871	0.0877	0.0886	–
in ethanol	0.0101	0.0127	0.0156	0.0182	0.0208	0.0236
in water	–	–	2.9e-06	4.57e-06	6.46e-06	9.3e-06
